Drawing on patent US20220106296A1, “CYANOTRIAZOLE COMPOUNDS AND USES THEREOF” (Novartis AG, priority 2018, published 2022), this text covers IC50 for 22 compounds.

Assay [1] relates to T. b. brucei Lister427 bloodstream form parasites. Description: T. b. brucei growth inhibition assay (CellTiter-Glo, 48 hours). The format is cell-based. The following applies: Trypanosoma brucei. An excerpt:
Bloodstream form of T. b. brucei Lister427 strain was obtained from the Genomics Institute of the Novartis Research Foundation. This strain was used for carrying out growth inhibition and kill kinetics assays. T. b. gambiense STIB930 and T. b. rhodesiense STIB900 were obtained from Swiss TPH, were used for carrying out the growth inhibition assays.
Bloodstream form T. b. brucei Lister 427 parasites were continuously passaged in HMI-9 medium formulated from IMDM medium (Invitrogen), 10% heat-inactivated fetal bovine serum (FBS), 10% Serum Plus medium supplement (SAFC Biosciences), 1 mM hypoxanthine (Sigma-Aldrich), 50 μM bathocuproine disulfonic acid (Sigma-Aldrich), 1.5 mM cysteine (Sigma-Aldrich), 1 mM pyruvic acid (Sigma-Aldrich), 39 μg/mL thymidine (Sigma-Aldrich), and 14 μL/L beta-mercapthoethanol (Sigma-Aldrich); all concentrations of added components refer to that in complete HMI-9 medium. The parasites were cultured in 10 mL of HMI-9 medium in T75 CELL-STAR tissue culture flasks at 37° C./5% CO2.
To determine compound growth inhibitory potency on T. b. brucei Lister427 bloodstream form parasites, 200 nL of 10-point, 3 fold serially diluted compounds in DMSO were transferred to the wells of white, solid bottom 384-well plates (Greiner Bio-One) by either Echo 555 acoustic liquid handling system or Mosquito. Then, 1×10^4 of T. b. brucei parasites in 40 μL of HMI-9 medium were added to each well, and the plates were incubated for 48 hours at 37° C. in 5% CO2 incubators. Parasite numbers in individual plate wells were determined through quantification of intracellular ATP amount. The CellTiter-Glo luminescent cell viability reagent (Promega) was added to plate wells, and ATP-dependent luminescence signal was measured on Tecan M1000 plate Reader after 30 min incubation. Luminescence values in wells with compounds were divided by the average luminescence value of the plate DMSO controls, and used for calculation of compound IC50 values.
In general terms: In ATP-based viability assays light output follows the ATP content of the culture.

In assay [2] the test system is intracellular T. cruzi amastigotes. Description: T. cruzi amastigote growth inhibition assay (NIH 3T3 host cells, β-galactosidase readout). In kind it is cell-based. The following applies: Trypanosoma cruzi, NIH3T3, read-out: (c) T.c.* IC50. How it is done: NIH 3T3 fibroblast cells (ATCC) were maintained in RPMI-1640 medium (Life Technologies) supplemented with 10% heat-inactivated fetal bovine serum and 100 IU penicillin/100 μg/ml streptomycin at 37° C./5% CO2. T. cruzi Tulahuen parasites constitutively expressing E. coli β-galactosidase were maintained in tissue culture as an infection in NIH 3T3 fibroblast cells. Briefly, 2×10^7 T. cruzi trypomastigotes were used to infect 6×10^5 NIH 3T3 cells growing in T75 CELLSTAR tissue culture flasks and cultured at 37° C./5% CO2 until proliferating intracellular parasites lysed host 3T3 cells and were released into the culture medium (typically 6-7 days). During the infection, the tissue culture medium was changed every two days. Number of T. cruzi trypomastigotes present in 1 ml of medium was determined using a haemocytometer.
To determine compound potency on intracellular T. cruzi amastigotes, NIH 3T3 cells were re-suspended in phenol red-free RPMI-1640 medium containing 3% heat-inactivated fetal bovine serum and 100 IU penicillin/100 μg/ml streptomycin, seeded at 1,000 cells/well (40 μl) in white, clear bottom 384-well plates (Greiner Bio-One), and incubated overnight at 37° C./5% CO2. The following day, 100 nl of each compound in DMSO were transferred to individual plate wells by Echo 555 acoustic liquid handling system. After one hour incubation, 1×10^6 of tissue culture-derived T. cruzi trypomastigotes, in 10 μl of phenol red-free RPMI-1640 medium supplemented with 3% heat-inactivated fetal bovine serum and 100 IU penicillin/100 μg/ml streptomycin were added to each well. Plates were then incubated for 6 days at 37° C./5% CO2. Intracellular T. cruzi parasites were quantified by measuring the activity of parasite-expressed β-galactosidase. Ten microliters of a chromogenic β-galactosidase substrate solution (0.6 mM chlorophenol red-β-D-galactopyranoside/0.6% NP-40 in PBS; both reagents from Calbiochem) were added to each well and incubated for 2 h at room temperature. After incubation, absorption was measured at 570 nm on SpectraMax M2 plate reader (Molecular Devices). Measured absorbance values in wells with compounds were divided by the average absorbance value of the plate DMSO controls, and used for calculation of compound EC50 values as described above.

Where only a bound is given, the exact number is not on record here.

Take `N#Cc1ncn(CC(=O)N2Cc3ccc(-c4cccnc4C(F)F)cc3C2)n1` [Example 1, 1-(2-(5-(2-(difluoromethyl)pyridin-3-yl)isoindolin-2-yl)-2-oxoethyl)-1H-1,2,4-triazole-3-carbonitrile]: the 50% inhibitory concentration (IC50) in assay [1] and in assay [2] was 100 to 1000 nM each time.
In the case of `N#Cc1ncn(CC(=O)N2Cc3ccc(-c4c(Cl)cncc4C(F)(F)F)cc3C2)n1` [Example 2, 1-(2-(5-(3-chloro-5-(trifluoromethyl)pyridin-4-yl)isoindolin-2-yl)-2-oxoethyl)-1H-1,2,4-triazole-3-carbonitrile], the figures for the concentration for half-maximal inhibition (IC50) in assay [1] and in assay [2] were 100 to 1000 nM and below 100 nM, respectively.
For the compound `N#Cc1ncn(CC(=O)N2Cc3ccc(-c4cc(F)ncc4Cl)cc3C2)n1` [Example 3, 1-(2-(5-(5-chloro-2-fluoropyridin-4-yl)isoindolin-2-yl)-2-oxoethyl)-1H-1,2,4-triazole-3-carbonitrile], the concentration for half-maximal inhibition (IC50) in assay [1] and in assay [2] was below 100 nM throughout.
On to `N#Cc1ncn(CC(=O)N2Cc3ccc(-c4cccc(Cl)c4C(F)(F)F)cc3C2)n1` [Example 4, 1-(2-(5-(3-chloro-2-(trifluoromethyl)phenyl)isoindolin-2-yl)-2-oxoethyl)-1H-1,2,4-triazole-3-carbonitrile], for which the IC50 in assay [1] and in assay [2] was below 100 nM in each case.
For the compound `N#Cc1ncn(CC(=O)N2Cc3ccc(-c4cccnc4OCC(F)(F)F)cc3C2)n1` [Example 5, 1-(2-oxo-2-(5-(2-(2,2,2-trifluoroethoxy)pyridin-3-yl)isoindolin-2-yl)ethyl)-1H-1,2,4-triazole-3-carbonitrile], the IC50 in assay [1] and in assay [2] was 100 to 1000 nM each time.
With `Cc1ccc(-c2ccc3c(c2)CN(C(=O)Cn2cnc(C#N)n2)C3)c(C(F)(F)F)n1` [Example 6, 1-(2-(5-(6-methyl-2-(trifluoromethyl)pyridin-3-yl)isoindolin-2-yl)-2-oxoethyl)-1H-1,2,4-triazole-3-carbonitrile], the IC50 in assay [1] and in assay [2] was below 100 nM each time.
In the case of `N#Cc1ncn(CC(=O)N2Cc3ccc(-c4c(C(F)(F)F)ccnc4Cl)cc3C2)n1` [Example 7, 1-(2-(5-(2-chloro-4-(trifluoromethyl)pyridin-3-yl)isoindolin-2-yl)-2-oxoethyl)-1H-1,2,4-triazole-3-carbonitrile], the IC50 in assay [1] is 100 to 1000 nM; in assay [2], below 100 nM.
With `N#Cc1ncn(CC(=O)N2Cc3ccc(-c4cncc(F)c4C(F)(F)F)cc3C2)n1` [Example 9, 1-(2-(5-(5-fluoro-4-(trifluoromethyl)pyridin-3-yl)isoindolin-2-yl)-2-oxoethyl)-1H-1,2,4-triazole-3-carbonitrile], the concentration for half-maximal inhibition (IC50) in assay [1] and in assay [2] was 100 to 1000 nM in each case.
For the compound `N#Cc1ncn(CC(=O)N2Cc3ccc(-c4c(F)cc(F)cc4Cl)cc3C2)n1` [Example 10, 1-(2-(5-(2-chloro-4,6-difluorophenyl)isoindolin-2-yl)-2-oxoethyl)-1H-1,2,4-triazole-3-carbonitrile], the 50% inhibitory concentration (IC50) in assay [1] and in assay [2] was below 100 nM each time.
On to `N#Cc1ncn(CC(=O)N2Cc3ccc(-c4ccc(F)cc4N4CCCC4)cc3C2)n1` [Example 11, 1-(2-(5-(4-fluoro-2-(pyrrolidin-1-yl)phenyl)isoindolin-2-yl)-2-oxoethyl)-1H-1,2,4-triazole-3-carbonitrile], for which the IC50 in assay [1] and in assay [2] was 100 to 1000 nM each time.
As for `N#Cc1ncn(CC(=O)N2Cc3ccc(-c4c(F)cccc4C(F)(F)F)cc3C2)n1` [Example 12, 1-(2-(5-(2-fluoro-6-(trifluoromethyl)phenyl)isoindolin-2-yl)-2-oxoethyl)-1H-1,2,4-triazole-3-carbonitrile], the IC50 in assay [1] and in assay [2] was below 100 nM in each case.
Consider `Cc1ncccc1-c1ccc2c(c1)CN(C(=O)Cn1cnc(C#N)n1)C2` [Example 13, 1-(2-(5-(2-methylpyridin-3-yl)isoindolin-2-yl)-2-oxoethyl)-1H-1,2,4-triazole-3-carbonitrile], for which the IC50 in assay [1] and in assay [2] was 100 to 1000 nM each time.
Consider `COc1ccc(-c2ccc3c(c2)CN(C(=O)Cn2cnc(C#N)n2)C3)c(C(F)(F)F)n1` [Example 14, 1-(2-(5-(6-methoxy-2-(trifluoromethyl)pyridin-3-yl)isoindolin-2-yl)-2-oxoethyl)-1H-1,2,4-triazole-3-carbonitrile], for which the values for the IC50 in assay [1] and in assay [2] were 100 to 1000 nM and below 100 nM, respectively.
On to `N#Cc1ncn(CC(=O)N2Cc3ccc(-c4c(F)ccc(F)c4Cl)cc3C2)n1` [Example 15, 1-(2-(5-(2-chloro-3,6-difluorophenyl)isoindolin-2-yl)-2-oxoethyl)-1H-1,2,4-triazole-3-carbonitrile], for which the 50% inhibitory concentration (IC50) in assay [1] and in assay [2] was below 100 nM throughout.
`N#Cc1ncn(CC(=O)N2Cc3ccc(-c4c(F)cncc4C(F)(F)F)cc3C2)n1` [Example 16, 1-(2-(5-(3-fluoro-5-(trifluoromethyl)pyridin-4-yl)isoindolin-2-yl)-2-oxoethyl)-1H-1,2,4-triazole-3-carbonitrile]: the IC50 in assay [1] was 100 to 1000 nM; in assay [2], below 100 nM.
The like results for `N#Cc1ncn(CC(=O)N2Cc3ccc(-c4cccnc4OC(F)(F)F)cc3C2)n1` [Example 17, 1-(2-oxo-2-(5-(2-(trifluoromethoxy)pyridin-3-yl)isoindolin-2-yl)ethyl)-1H-1,2,4-triazole-3-carbonitrile] were, in that order, 100 to 1000 nM and 100 to 1000 nM.
`N#Cc1ncn(CC(=O)N2Cc3ccc(-c4c(Cl)ccnc4C(F)(F)F)cc3C2)n1` [Example 18, 1-(2-(5-(4-chloro-2-(trifluoromethyl)pyridin-3-yl)isoindolin-2-yl)-2-oxoethyl)-1H-1,2,4-triazole-3-carbonitrile]: the IC50 in assay [1] is 100 to 1000 nM; in assay [2], below 100 nM.
Regarding `N#Cc1ncn(CC(=O)N2Cc3ccc(-c4cccnc4CC(F)(F)F)cc3C2)n1` [Example 19, 1-(2-oxo-2-(5-(2-(2,2,2-trifluoroethyl)pyridin-3-yl)isoindolin-2-yl)ethyl)-1H-1,2,4-triazole-3-carbonitrile], the IC50 in assay [1] and in assay [2] was 100 to 1000 nM each time.
For `N#Cc1ncn(CC(=O)N2Cc3ccc(-c4c(F)ccnc4C(F)(F)F)cc3C2)n1` [Example 20, 1-(2-(5-(4-fluoro-2-(trifluoromethyl)pyridin-3-yl)isoindolin-2-yl)-2-oxoethyl)-1H-1,2,4-triazole-3-carbonitrile], the IC50 in assay [1] and in assay [2] was below 100 nM in each case.
On to `N#Cc1ncn(CC(=O)N2Cc3ccc(-c4c(F)ccnc4Cl)cc3C2)n1` [Example 21, 1-(2-(5-(2-chloro-4-fluoropyridin-3-yl)isoindolin-2-yl)-2-oxoethyl)-1H-1,2,4-triazole-3-carbonitrile], for which the IC50 in assay [1] is 100 to 1000 nM; in assay [2], below 100 nM.
The like results for `N#Cc1ncn(CC(=O)N2Cc3ccc(-c4c(C(F)(F)F)ccnc4F)cc3C2)n1` [Example 22, 1-(2-(5-(2-fluoro-4-(trifluoromethyl)pyridin-3-yl)isoindolin-2-yl)-2-oxoethyl)-1H-1,2,4-triazole-3-carbonitrile] were, in that order, 100 to 1000 nM and below 100 nM.
Compound `N#Cc1ncn(CC(=O)N2Cc3ccc(-c4ccc(OC(F)(F)F)cc4)cc3C2)n1` [Example 83, 1-(2-oxo-2-(5-(4-(trifluoromethoxy)phenyl)isoindolin-2-yl)ethyl)-1H-1,2,4-triazole-3-carbonitrile] came in with an IC50 in assay [1] of at least 1000 nM.

As usually defined, the IC50 is the concentration at which inhibition is half-maximal.
